Measured values as given in patent US20150126553A1, “BICYCLIC HETEROCYCLES CAPABLE OF MODULATING T-CELL RESPONSES, AND METHODS OF USING SAME” (Nogra Pharma Limited, priority 2012, published 2015).

What was measured:
[1] = system: Human peripheral blood lymphocytes (PBLs); assay: Inhibition of T lymphocyte proliferation (PHA stimulation, tritiated thymidine); format: cell-based; conditions: PHA stimulated lymphocytes
Procedure: Human peripheral blood lymphocytes (PBLs) were isolated from whole blood of healthy volunteers by Ficoll-Isopaque density gradient centrifugation. After washing, monocytes were separated from lymphocytes by percoll density gradient centrifugation. The lymphocytes were cultured in IMDM (Gibco, Verviers, Belgium) supplemented with 10% heat inactivated fetal calf serum.
Cells were seeded in 96 well plates and stimulated with PHA (10 μg/ml) and corresponding concentration of pharmaceuticals. After 24 hours tritiated thymidine was added to each well and left overnight. Next morning proliferation was measured by microbeta counter. Graphs were plotted with the untreated condition set to a hundred percent.

kinase Zap70 = assay: Western blot of T cell receptor related signaling, phospho-Zap70; format: cell-based, human; conditions: pretreated 10 minutes, stimulated 10 minutes with PHA; FIG. 2A
Procedure: (§1) Lymphocytes were seeded in a 6 well plate (1.0·10^7/well), pretreated for 10 minutes with S3.1, S3.4 or dexamethasone and stimulated for 10 minutes with PHA. The experiment was stopped by adding a large volume of ice cold PBS to the cells. The suspension was transferred to a tube, briefly spinned down in a centrifuge and the supernatant removed. The pellet was lysed by adding cold lysisbuffer (0.1% NP40, 50 mM TrisHCl, 1 mM EDTA, 1 mM EGTA, 150 mM NaCl, 200 μM Na3VO4, 10 mM NaF and protease inhibitors) and incubating 20 minutes on ice.
(§2) To investigate the cell signaling events that are affected by treatment with S3.1 and S3.4, lysates were supplemented with sample buffer (188 mM Tris-Cl (pH 6.8), 3% SDS, 30% glycerol, 0.01% bromophenol blue, 15% β-mercaptoethanol), heated to 95° C. for 5 minutes, cooled on ice and sonicated. Samples were then run on 10% SDS-PAGE gel, blotted to PVDF membrane and incubated with antibodies for phospho-Zap70 (Cell Signaling Technology (Beverly, Mass.)) and phospho-LAT (Cell Signaling Technology (Beverly, Mass.)). To show equal loading of the samples the blot was incubated with an antibody directed against beta-actin (Santa Cruz Biotechnology (Heidelberg, Germany)).

scaffolding protein LAT = assay: Western blot of T cell receptor related signaling, phospho-LAT; format: cell-based, human; conditions: pretreated 10 minutes, stimulated 10 minutes with PHA; FIG. 2A
Procedure: as §1, §2

In the case of c1ccc(CN2CCCC(c3ccnc(SCCN4CCCC4)n3)C2)cc1 (stereo not drawn) [Compound S3.4], the “effect on T lymphocyte proliferation” value [1] is reported as “antiproliferative effect”, the “Zap70 phosphorylation level compared to a stimulated untreated control” value (kinase Zap70) is reported as “lower phosphorylation levels” and the “LAT phosphorylation level compared to a stimulated untreated control” value (scaffolding protein LAT) is reported as “lower phosphorylation levels”.
